#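 Assay format: 96-well plates, 48-hour exposure. Here, GI50 denotes the concentration required for 50% inhibition of growth. TGI marks complete inhibition of growth.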
# How the values were obtained:
# Assay in all cases: NCI-60 cell line screen, 48 h
# [1] = system: EKVX NSCLC
# [2] = system: M14 melanoma
# [3] = system: RXF 393 renal
# [4] = system: HCT-15 colon
# [5] = system: OVCAR-8 ovarian
# [6] = system: K-562 leukemia
# [7] = system: A498 renal
# [8] = system: HCC-2998 colon
# [9] = system: SW-620 colon
# [10] = system: HL-60(TB) leukemia
# [11] = system: TK-10 renal
# [12] = system: HS 578T breast
# [13] = system: UACC-62 melanoma
# [14] = system: MDA-MB-231 breast
# [15] = system: A549 NSCLC
# [16] = system: UACC-257 melanoma
# [17] = system: IGROV1 ovarian
# [18] = system: SF-268 CNS
# [19] = system: SK-MEL-5 melanoma
# [20] = system: DU-145 prostate
# [21] = system: NCI-H23 lung
# [22] = system: NCI-H226 lung
# [23] = system: MDA-MB-435
# [24] = system: SK-MEL-2 melanoma
# [25] = system: NCI-H460 lung
# [26] = system: T-47D breast
# [27] = system: CCRF-CEM leukemia
# [28] = system: MALME-3M melanoma
# [29] = system: SK-MEL-28 melanoma
# [30] = system: ACHN renal
# [31] = system: SNB-75 CNS
# [32] = system: OVCAR-5 ovarian
# [33] = system: MOLT-4 leukemia
# [34] = system: CAKI-1 renal
# [35] = system: HOP-92 NSCLC
# [36] = system: OVCAR-4 ovarian
# [37] = system: SR leukemia
# [38] = system: SN12C renal
# [39] = system: SF-539 CNS
# [40] = system: HCT-116 colon
# [41] = system: UO-31 renal
# [42] = system: BT-549 breast
# [43] = system: OVCAR-3 ovarian
# [44] = system: SF-295 CNS
# [45] = system: PC-3 prostate
# [46] = system: KM12 colon
# [47] = system: SK-OV-3 ovarian
# [48] = system: NCI/ADR-RES ovarian
# [49] = system: MCF7 breast
# [50] = system: HT29 colon
# [51] = system: SNB-19 CNS
# [52] = system: LOX IMVI melanoma
smiles,measurement,setting,value
COc1cc(-c2ccc(-c3ccc(C(=N)N)cc3)s2)cc(OC)c1OC,GI50,[1],4.69 µM
same,TGI,[1],19.7 µM
same,GI50,[2],1.62 µM
same,TGI,[2],3.36 µM
same,GI50,[3],2.1 µM
same,TGI,[3],4.08 µM
same,GI50,[4],2.25 µM
same,TGI,[4],5.29 µM
same,GI50,[5],2.34 µM
same,TGI,[5],5.87 µM
same,GI50,[6],2.63 µM
same,TGI,[6],10.2 µM
same,GI50,[7],0.215 µM
same,TGI,[7],3.96 µM
same,GI50,[8],1.79 µM
same,TGI,[8],3.24 µM
same,GI50,[9],1.73 µM
same,TGI,[9],3.31 µM
same,GI50,[10],2.13 µM
same,TGI,[10],4.75 µM
same,GI50,[11],2.05 µM
same,TGI,[11],4.02 µM
same,GI50,[12],1.75 µM
same,TGI,[12],4.16 µM
same,GI50,[13],2.77 µM
same,TGI,[13],10.3 µM
same,GI50,[14],1.62 µM
same,TGI,[14],3.26 µM
same,GI50,[15],3.63 µM
same,TGI,[15],14.7 µM
same,GI50,[16],2.02 µM
same,TGI,[16],4.37 µM
same,GI50,[17],5 µM
same,TGI,[17],18.5 µM
same,GI50,[18],2.41 µM
same,TGI,[18],7.36 µM
same,GI50,[19],1.72 µM
same,TGI,[19],3.1 µM
same,GI50,[20],2.41 µM
same,TGI,[20],6.09 µM
same,GI50,[21],2.25 µM
same,TGI,[21],5.4 µM
same,GI50,[22],2.16 µM
same,TGI,[22],6.58 µM
same,GI50,[23],1.57 µM
same,TGI,[23],3.01 µM
same,GI50,[24],1.91 µM
same,TGI,[24],3.73 µM
same,GI50,[25],1.83 µM
same,TGI,[25],3.47 µM
same,GI50,[26],1.9 µM
same,TGI,[26],4.92 µM
same,GI50,[27],2.93 µM
same,TGI,[27],11.7 µM
same,GI50,[28],1.46 µM
same,TGI,[28],2.9 µM
same,GI50,[29],1.6 µM
same,TGI,[29],3.05 µM
same,GI50,[30],1.73 µM
same,TGI,[30],3.19 µM
same,GI50,[31],1.6 µM
same,TGI,[31],6.19 µM
same,GI50,[32],3.46 µM
same,TGI,[32],13.8 µM
same,GI50,[33],2.2 µM
same,TGI,[33],6.15 µM
same,GI50,[34],1.72 µM
same,TGI,[34],3.22 µM
same,GI50,[35],1.29 µM
same,TGI,[35],3.72 µM
same,GI50,[36],1.76 µM
same,TGI,[36],4.03 µM
same,GI50,[37],2.08 µM
same,TGI,[37],5.43 µM
same,GI50,[38],4.5 µM
same,TGI,[38],18.8 µM
same,GI50,[39],1.62 µM
same,TGI,[39],3.03 µM
same,GI50,[40],1.56 µM
same,TGI,[40],3.19 µM
same,GI50,[41],3.37 µM
same,TGI,[41],14.8 µM
same,GI50,[42],2.69 µM
same,TGI,[42],9.4 µM
same,GI50,[43],2.01 µM
same,TGI,[43],3.87 µM
same,GI50,[44],1.77 µM
same,TGI,[44],3.45 µM
same,GI50,[45],2.94 µM
same,TGI,[45],11.2 µM
same,GI50,[46],1.67 µM
same,TGI,[46],3.35 µM
same,GI50,[47],2.45 µM
same,TGI,[47],6.65 µM
same,GI50,[48],7.88 µM
same,TGI,[48],23.6 µM
same,GI50,[49],1.65 µM
same,TGI,[49],4.36 µM
same,GI50,[50],1.5 µM
same,TGI,[50],5.56 µM
same,GI50,[51],2.36 µM
same,TGI,[51],6.56 µM
same,GI50,[52],1.72 µM
same,TGI,[52],3.1 µM

# Reference: PubChem BioAssay (NCI)
